A short description of the data set: Human HepG2 cell viability assay in 384 well format. The format is toxicity, cell-based. Conditions: HepG2 cells, read-out: Inhibition. Details: dose 125 nL, time 70.5 hour; cytotoxicity at 70.5 h: concentration not given beside the values.
As to `CCc1cnc(CN2CCC(N(Cc3noc(CC)n3)C(C)=O)C2)o1` (stereo not given), the cytotoxicity at 70.5 h is -9.22%. With `CC(NC(=O)NCCn1ccnc1)c1ccc2c(c1)CCC(=O)N2` (stereo not given) the figure was 13.7%; with `Cc1cc(C)n(CC2CN(c3cnc4ccccc4n3)CCO2)n1` (stereo not given), -8.47%; with `Cc1nc(NC(=O)c2ccc(-n3ncc(C#N)c3N)cc2)sc1C`, 17%. For `Cc1ccnc(NC(=O)c2ccc(-n3ncc(C#N)c3N)cc2)c1`, the cytotoxicity at 70.5 h was -6.86%. In the case of `COc1cccc2cc(CNC(=O)N3CCC(C(N)=O)CC3)oc12` it was -8.48%. In the case of `CC(=O)c1cccc(OCC(=O)NS(=O)(=O)c2ccc(Br)s2)c1`, the cytotoxicity at 70.5 h was -2.56%. In the case of `CC(=O)c1ccc(OCC(=O)NS(=O)(=O)c2ccc(C)s2)cc1` it was -14%; in that of `O=C1C(NS(=O)(=O)c2ccc(F)cc2F)CCN1Cc1ccccc1` (stereo not given), -7.99%. In the case of `COCC(C)NC(=O)c1cc(C)n(-c2cccc(OC)c2)c1C` (stereo not given) it was -5.2%.

As to `COc1cccc(CC(=O)N2CCCC(n3nc(C)cc3C)C2)c1` (stereo not given), the cytotoxicity at 70.5 h was -14.1%.

Turning to `COc1ccc(-c2nnc(CNCCn3cccn3)o2)cc1`, the cytotoxicity at 70.5 h is -9.2%. With `Cc1cc(C)n(C2CCCN(C(=O)Cc3cccc(F)c3)C2)n1` (stereo not given) the figure was -9.48%. For the compound `Cc1nc(CN2CCCC(NCCCOc3ccc(F)cc3)C2)no1` (stereo not given), the cytotoxicity at 70.5 h is -8.43%. As to `Cc1ccc(-c2nnc(CNCCn3cccn3)o2)cc1`, the cytotoxicity at 70.5 h stood at 13.9%. With `COc1ccccc1CC(=O)N1CCCC(n2nc(C)nc2C)C1` (stereo not given) the figure was -13%; with `CCc1nc(CN(C(C)=O)C2CCN(CCc3ccccn3)C2)no1` (stereo not given), -11.5%; with `Cc1nc(C)n(CC2CCCN2CCOc2cccc(F)c2)n1` (stereo not given), -9.85%. Turning to `CC(C)c1n[nH]c(C2CN(C(=O)c3cc4c(s3)CCC4)CCO2)n1` (stereo not given), the cytotoxicity at 70.5 h was -8.59%. With `Cc1nc(C)n(CC2CCCCN2CCOc2cccc(C#N)c2)n1` (stereo not given) the figure was -7.98%; with `O=C(c1cnc2c(cnn2C2CCCC2)c1)N1CCN(CCO)CC1`, 2.02%. Consider `Cc1cc(C2CCCN(CCS(=O)(=O)c3ccccc3)C2)n[nH]1` (stereo not given), for which the cytotoxicity at 70.5 h was -8.26%. Consider `Cc1ccc(-c2nc(CNCC3CN(C)CCO3)co2)c(C)c1` (stereo not given), for which the cytotoxicity at 70.5 h was found to be 5.24%.

Regarding `Cc1cc(C2CCCN(CCCS(C)(=O)=O)C2)n[nH]1` (stereo not given), the cytotoxicity at 70.5 h is -4.49%. In the case of `Cc1noc(C(C)C)c1C(=O)NCC(c1cccs1)N(C)C` (stereo not given) it was -8.63%; in that of `CCN(CC)C(=O)C1CCCN1C(=O)c1cccc(-n2cnnn2)c1` (stereo not given), -4.16%. On to `Cc1ccc(-c2nc(CNCC3CN(C)CCO3)co2)cc1` (stereo not given), for which the cytotoxicity at 70.5 h is -2.95%. In the case of `Cc1cc(C2CCCN(CCNS(=O)(=O)c3ccccc3)C2)n[nH]1` (stereo not given) it was 24.5%; in that of `O=C(CCCc1ccccc1)N1CCCC(n2cncn2)C1` (stereo not given), -4.48%; in that of `Cc1nc(CSCCC(=O)NCc2ccc(-n3cncn3)nc2)cs1`, 24.6%. Consider `Cc1noc(C(C)C)c1C(=O)NCC(c1ccccc1)N(C)C` (stereo not given), for which the cytotoxicity at 70.5 h was -8.37%.

In the case of `OC(CN1CCC(c2ccn[nH]2)CC1)c1ccccc1F` (stereo not given), the cytotoxicity at 70.5 h is -4.73%. Turning to `Cc1ccnn1-c1ccc(C(=O)N2CCCC(n3ccnc3)C2)cc1` (stereo not given), the cytotoxicity at 70.5 h was -7.39%.

Consider `CC(C)c1n[nH]c(C(=O)NC(C)c2ccncc2)c1Br` (stereo not given), for which the cytotoxicity at 70.5 h is -2.63%. Turning to `CN1CC(C(=O)Nc2ccc(OCC(F)(F)C(F)F)nc2)CC1=O` (stereo not given), the cytotoxicity at 70.5 h was -7.73%. In the case of `Cc1cccc(NC(=O)c2[nH]nc(C(C)C)c2Br)n1` it was 23.8%; in that of `O=C(CCc1ccsc1)N1CCCC(n2cncn2)C1` (stereo not given), -11.8%. For the compound `COc1ccc(CCC(=O)N2CCCC(n3cncn3)C2)cc1` (stereo not given), the cytotoxicity at 70.5 h was -7.91%. With `CS(=O)(=O)c1ccc(C(=O)N2CCCC(n3ccnc3)C2)cc1` (stereo not given) the figure was -10.2%. In the case of `N#Cc1ccc(CCC(=O)N2CCCC(n3cncn3)C2)cc1` (stereo not given), the cytotoxicity at 70.5 h was -8.59%. As for `Cc1cc(C2CCCN(CCCS(N)(=O)=O)C2)n[nH]1` (stereo not given), the cytotoxicity at 70.5 h is -5.94%. With `Cc1cc(NC(=O)NCC(c2ccc(C)o2)N2CCOCC2)n(C)n1` (stereo not given) the figure was 21%. For `Cc1[nH]ncc1C(=O)N1CCCC1c1noc(C2CC2)n1` (stereo not given), the cytotoxicity at 70.5 h was 19.4%.

As for `Cc1cnn(CC2CCCN2Cc2nc(C)c3ccccc3n2)c1` (stereo not given), the cytotoxicity at 70.5 h is 1.46%. In the case of `CCN1CCN(C(=O)c2cccn2Cc2ccccc2)CC1`, the cytotoxicity at 70.5 h was -0.982%. `Cc1cc(C)n(CC2CCCN2C(=O)c2c[nH]c3ncccc23)n1` (stereo not given): the cytotoxicity at 70.5 h amounted to 27.2%.

For the compound `CC(=O)NCCNC(=O)CN1CCN(Cc2nccn2C)C(C)C1` (stereo not given), the cytotoxicity at 70.5 h was -2.6%. As for `CCc1nc(CN(C)CC(c2cccs2)N2CCOCC2)no1` (stereo not given), the cytotoxicity at 70.5 h is 18.8%. As to `N#Cc1ccnc(N2CCN(C(=O)NC3CCS(=O)(=O)C3)CC2)c1` (stereo not given), the cytotoxicity at 70.5 h was -7.36%. For the compound `Cc1nc(C)c(C(=O)NCCNC(=O)c2ccc(F)cc2F)s1`, the cytotoxicity at 70.5 h was -6.45%.

In the case of `CCS(=O)(=O)c1ccccc1N1CCC(NC(C)=O)CC1`, the cytotoxicity at 70.5 h was -4.79%. On to `CC(C)c1nc2c(n1C)CCN(Cc1nc(-c3ccsc3)no1)C2`, for which the cytotoxicity at 70.5 h is -9.76%. `CC(C)Cc1noc(CN2CCCC(Cn3cncn3)C2)n1` (stereo not given): the cytotoxicity at 70.5 h amounted to 3.45%. Regarding `CC(C)Cc1noc(CN2CCOC(Cn3cncn3)C2)n1` (stereo not given), the cytotoxicity at 70.5 h was -5.1%. In the case of `O=C(CCCNC(=O)C1CC1)Nc1cnn(-c2ccccc2Cl)c1`, the cytotoxicity at 70.5 h is -1.38%.

Regarding `Cn1cnc2c1CCN(Cc1nc(-c3ccsc3)no1)C2`, the cytotoxicity at 70.5 h is 32.4%. With `Cc1nc(C2CCCN2CC(=O)N(Cc2ccsc2)C2CC2)no1` (stereo not given), the cytotoxicity at 70.5 h is -5.17%.

Take `O=C(c1nc(=O)[nH][nH]1)N1CCCC(c2cc(C(F)(F)F)[nH]n2)C1` (stereo not given): the cytotoxicity at 70.5 h amounted to 34.5%. With `Cc1ccc(C(=O)NS(=O)(=O)c2ccccc2C)c(=O)[nH]1` the figure was -4.91%; with `Cc1cc(C)cc(OCCC(=O)N2CCOCC2c2ncon2)c1` (stereo not given), 5.7%; with `Cc1cc(CN2CCOC(CN(C)C)C2)no1` (stereo not given), 9.18%.

Consider `CCc1nc(CC(=O)N2CCOCC2c2ncon2)cs1` (stereo not given), for which the cytotoxicity at 70.5 h is -3.4%. Consider `Fc1ccc(CN2CCCC2Cn2cccn2)c2ncccc12` (stereo not given), for which the cytotoxicity at 70.5 h was -10.6%.

Regarding `Cc1ccc(-c2noc(CN3CCOC(CN(C)C)C3)n2)cc1F` (stereo not given), the cytotoxicity at 70.5 h was -0.0729%. As to `CN(CC1CCCO1)C1CCN(CCc2ccccn2)CC1` (stereo not given), the cytotoxicity at 70.5 h is -6.95%.

As for `CC1CN(CC(=O)Nc2nncs2)CCN1c1nccs1` (stereo not given), the cytotoxicity at 70.5 h was -9.27%. Consider `c1ccc(CCCN2CC(n3cccn3)C2)cc1`, for which the cytotoxicity at 70.5 h was -2.22%. In the case of `Cc1nn(C)c(C)c1C1CCCN1Cc1nc(-c2ccco2)oc1C` (stereo not given), the cytotoxicity at 70.5 h was -2.24%. For `Cc1cc(C)cc(C2(C(=O)N3CCCC(n4cncn4)C3)CC2)c1` (stereo not given), the cytotoxicity at 70.5 h is -17.8%.

As for `Cc1nc(CN(C)C2CCN(CC(=O)N3CCOCC3)C2)no1` (stereo not given), the cytotoxicity at 70.5 h was -12.6%.

`Cc1nn(C)c(C)c1C1CCCN1Cc1nc(-c2ccco2)no1` (stereo not given): the cytotoxicity at 70.5 h was -19.8%.

As for `Cc1cnn(CC2CCCN2CCCc2nc3ccccc3o2)c1` (stereo not given), the cytotoxicity at 70.5 h is -16.1%. With `O=C(NCc1ccccn1)NC1CCOc2ccccc21` (stereo not given) the figure was 20.6%; with `O=C(NCc1ccco1)C1CCCN1Cc1nc(-c2ccco2)no1` (stereo not given), -15.9%. In the case of `CC(C)c1noc(CN2CCN(C(=O)c3ccccc3F)CC2)n1` it was -18.6%; in that of `CC(C)c1ccc(O)c(C(=O)N2CCN(Cc3cscn3)CC2)c1`, -15.1%; in that of `Cc1c[nH]cc1C(=O)N1CCN(Cc2nc(C(C)C)no2)CC1`, -15.1%.

As to `Cc1cc(C)cc(NC(=O)CN2CCCC(n3cncn3)C2)c1` (stereo not given), the cytotoxicity at 70.5 h was -3.52%.

In the case of `Cc1nnc2n1CCN(Cc1csc(CC(=O)N(C)C)n1)C2`, the cytotoxicity at 70.5 h is -13.5%.

With `Cc1nnc2n1CCN(Cc1csc(Cc3ccccc3)n1)C2`, the cytotoxicity at 70.5 h was -34.1%. On to `N#Cc1ccc(N2CCN(C(=O)c3cc(C4CC4)[nH]n3)CC2)c(F)c1`, for which the cytotoxicity at 70.5 h is -8.69%. With `Cc1ccc(-n2nnc(C(=O)Nc3cc(C)nn3C)c2C2CC2)cc1`, the cytotoxicity at 70.5 h was 0.219%. On to `Cc1c(C(=O)N2CCCC2c2cnn(C)c2)nnn1-c1ccccc1` (stereo not given), for which the cytotoxicity at 70.5 h was -7.15%.

Turning to `Cc1ccc(-n2nnc(C(=O)NS(C)(=O)=O)c2C2CC2)cc1`, the cytotoxicity at 70.5 h is -9%. For the compound `COc1ncccc1CNC(=O)NC1CCOc2ccccc21` (stereo not given), the cytotoxicity at 70.5 h is -13.3%. For the compound `Cc1nc2cc(C(=O)N3CCCC(n4cncn4)C3)ccc2n1C` (stereo not given), the cytotoxicity at 70.5 h was found to be 22.7%. As for `Cc1cc(C)cc(OCCC(=O)N2CCCC(n3cncn3)C2)c1` (stereo not given), the cytotoxicity at 70.5 h is -15.5%.

Take `COc1cc(C(=O)NS(=O)(=O)c2cccc(C#N)c2)cc(Cl)c1OC`: the cytotoxicity at 70.5 h is -8.04%. As for `Cc1cnc(CN2CCCC(c3cc(C(N)=O)[nH]n3)C2)o1` (stereo not given), the cytotoxicity at 70.5 h was determined as 9.27%. With `CCc1[nH]ncc1C(=O)N1CCCN(Cc2cnn(C(C)C)c2)CC1` the figure was 6.52%. With `CCN(Cc1ccc2c(c1)OCO2)Cc1nc(C)no1` the figure was -20.4%; with `CC1COCCN1Cc1nc(-c2cccs2)no1` (stereo not given), -31%. For the compound `CC(C)(NCC(=O)NCC(F)(F)F)c1ccc2c(c1)OCCO2`, the cytotoxicity at 70.5 h was -16.8%. With `CC(C)(C)NC(=O)NC(=O)CNC(C)(C)c1ccc2c(c1)OCCO2` the figure was -16.2%. For the compound `CC(C)(C)c1nnc(CN2CCCC(c3cc(C(N)=O)[nH]n3)C2)o1` (stereo not given), the cytotoxicity at 70.5 h turned out to be 10.9%. As to `COc1cccc2cc(CNCc3ccnc(N4CCOCC4)c3)oc12`, the cytotoxicity at 70.5 h was found to be 11.7%. Consider `Cn1ccc(C(=O)NC2CCN(c3ncccn3)CC2)cc1=O`, for which the cytotoxicity at 70.5 h was -15.3%. In the case of `COc1ccc(-c2noc(CN3CCOCC3C)n2)cc1OC` (stereo not given) it was -10.5%.

As to `COc1ccc(CNCc2ccnc(N3CCOCC3)c2)c(OC)c1`, the cytotoxicity at 70.5 h was -10.2%. In the case of `COc1cc(CNCC(O)c2ccc(C)cc2)cc2c1OCCO2` (stereo not given), the cytotoxicity at 70.5 h was 4.82%.

These data come from ChEMBL document CHEMBL3507680, “University of Dundee, Gates Library screen for HepG2 cell viability”.
